Data on 1 compound can be found in patent publication US5998377A, “Means for treating prostate cancer” (ASTA Medica Aktiengesellschaft, priority 1998, dated 1999).

The subject of data set [1] is BPH patients. The note with it: cited from earlier work.
The test system of data set [2] is prostate carcinoma patients. The conditions noted are these: cited from earlier work.
The subject of data set [3] is BPH patients. The experiment in a line: Clinical therapy of BPH with Cetrorelix (Example 1). Format: in vivo, human. The conditions noted are these: therapy regimen of 4 to 8 weeks. As for the experimental part:
The invention will be explained in detail using the following clinical results:
Cetrorelix is administered in a dose of 0.5 mg to 2 mg daily for 4 to 8 weeks for the therapy of BPH. A dose of 5 mg to 30 mg, dispensed once per week or every 10 days also over a time period of 4 to 8 weeks as well as one every two weeks or one injection per month of 20 mg to 60 mg can also decisively improve the clinical symptoms and signs. […] The prostate volume decreases by 20 to 40% during the treatment time of 4 to 8 weeks. […] In addition, at least 30% of the patients achieve an improvement of the urine flow of 6 ml/sec with this therapy. This is almost equivalent to an improvement like that associated with the golden standard operation, and in considerably shorter time. […] These clinical benefits continue for at least 3 to 6 months after therapy. This allows a long-term therapy of BPH with only an intermittent treatment of 2 to max. 4 injection cycles over 4 to 8 weeks.

[4] abbreviates: BPH patients, 500 μg every 12 hours for 4 weeks.
Where [5] appears, read: prostate carcinoma patients, end of the 6 weeks of therapy.

Non-standard residues stand in square brackets, D forms with d. Residues, ends and D or L forms follow the SMILES beside them. dPhe(4-Cl) = N[C@H](Cc1ccc(Cl)cc1)C(=O)O; d2Nal = N[C@H](Cc1ccc2ccccc2c1)C(=O)O; dCit = NC(=O)NCCC[C@@H](N)C(=O)O; d3Pal = N[C@H](Cc1cccnc1)C(=O)O

On to `CC(=O)N[C@H](Cc1ccc2ccccc2c1)C(=O)N[C@H](Cc1ccc(Cl)cc1)C(=O)N[C@H](Cc1cccnc1)C(=O)N[C@@H](CO)C(=O)N[C@@H](Cc1ccc(O)cc1)C(=O)N[C@H](CCCNC(N)=O)C(=O)N[C@@H](CC(C)C)C(=O)N[C@@H](CCCNC(=N)N)C(=O)N1CCC[C@H]1C(=O)N[C@H](C)C(N)=O` [Cetrorelix] (Ac-[d2Nal][dPhe(4-Cl)][d3Pal]SY[dCit]LRP[dA]-NH2), for which the “testosterone levels, initially” value in the data set on BPH patients [1] (BPH patients (all patients), 500 μg every 12 hours, initially) was “lowering in testosterone levels to a castration level”. In the data set with BPH patients [1] (setting [4]), the prostate volume result is “a decrease in prostate volume” and the symptoms of dysuria result is reported as “distinct decrease of the symptoms of dysuria”. Further, the “testosterone levels during treatment” value in the data set on BPH patients [1] (BPH patients, 500 μg every 12 hours for 4 weeks, no castration values during the last three weeks) was “fluctuated at subnormal levels”. For the same compound, in data set [2] (prostate carcinoma patients (all patients), 500 μg every 12 hours, initially), the “testosterone levels, initially” value is listed as “lowering in testosterone levels to a castration level”. For the same compound, in data set [2] (setting [5]), the “overall condition of the patient” value is “considerable improvement” and the “testosterone values at the end of therapy” value is “at the castration levels”. For the same compound, in the data set on BPH patients [3], the “increase of the peak flow of the urine” value was “approximately 3 ml/sec”, the “patients achieving an improvement of the urine flow of 6 ml/sec” value is listed as “at least 30%”, the quality of life result is listed as “significant improvements as regards quality of life” and the sexual performance result was “No limitations in sexual performance are observed”. Moreover, the testosterone decrease result in the data set on BPH patients [3] is on record as “Submaximal decreases of testosterone occur, but these are above those levels associated with castration”.
